The values that follow come from ChEMBL document CHEMBL1133669 (J Med Chem, 2000).

Assay [1] concerns Rattus norvegicus. Description: Renal excretion of bicarbonate after administration of 5 mg/kg in rats. The class given is functional, Kidney.
Another assay deals with T1, Carbonic anhydrase 4 (Bos taurus, UniProt Q95323).
T1 sequence (Q95323 whole entry): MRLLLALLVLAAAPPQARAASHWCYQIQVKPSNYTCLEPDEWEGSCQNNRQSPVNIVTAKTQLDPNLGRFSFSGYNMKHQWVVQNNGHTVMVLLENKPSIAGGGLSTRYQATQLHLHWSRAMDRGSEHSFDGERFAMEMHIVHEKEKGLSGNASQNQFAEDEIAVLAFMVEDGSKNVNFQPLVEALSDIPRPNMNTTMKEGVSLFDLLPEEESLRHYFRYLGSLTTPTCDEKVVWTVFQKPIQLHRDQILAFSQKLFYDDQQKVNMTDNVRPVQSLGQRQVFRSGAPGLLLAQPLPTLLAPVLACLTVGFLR

A further assay has as its target Carbonic anhydrase 1 (Homo sapiens, UniProt P00915).
Assay [2] deals with Rattus norvegicus. Description: Renal excretion of bicarbonate after administration of 4 mg/kg in rats. The class given is functional, Kidney.
The species entered for assay [3] is Rattus norvegicus. The note with it: dose 10 mg/kg.

The structures appear in SMILES notation. pKi: −log10 of the molar value.

Sequence of Carbonic anhydrase 1 (P00915 whole entry): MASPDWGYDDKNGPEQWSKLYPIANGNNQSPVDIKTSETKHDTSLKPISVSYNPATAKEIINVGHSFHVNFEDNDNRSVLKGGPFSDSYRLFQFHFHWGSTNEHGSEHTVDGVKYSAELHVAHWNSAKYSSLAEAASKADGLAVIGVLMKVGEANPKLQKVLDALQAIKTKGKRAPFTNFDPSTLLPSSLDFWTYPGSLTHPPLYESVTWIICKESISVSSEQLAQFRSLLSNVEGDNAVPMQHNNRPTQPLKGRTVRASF
Description for Carbonic anhydrase 1: Inhibitory activity against human carbonic anhydrase I (CA1)
Description for Carbonic anhydrase 4: Inhibitory activity against bovine carbonic anhydrase IV (CA4), isolated from bovine lung microsomes

As usually defined, the pKi is the negative decadic logarithm of the Ki, by convention in mol/L. A higher pKi goes with a small Ki. With `Cc1cc(-c2ccccc2)cc(C)[n+]1CC(=O)Nc1nnc(S(N)(=O)=O)s1.[O-][Cl+3]([O-])([O-])[O-]`, in the assay on Rattus norvegicus [1], the Bicarbonate level is 38. The figures for the pKi on Carbonic anhydrase 4 and at Carbonic anhydrase 1 were 7.77 and 6.69, respectively.

As for `CCc1cc(-c2ccccc2)cc(CC)[n+]1CC(=O)Nc1ccc(S(=O)(=O)/N=c2/sc(S(N)(=O)=O)nn2C)cc1.[O-][Cl+3]([O-])([O-])[O-]`, the pKi is 8.00 on Carbonic anhydrase 4 and 7.89 at Carbonic anhydrase 1. The compound further displayed a Bicarbonate level in the assay on Rattus norvegicus [2] of 40.

For `NS(=O)(=O)c1nnc(NS(=O)(=O)c2ccccc2)s1` [BENZOLAMIDE], the Bicarbonate level in the assay filed under Rattus norvegicus [3] is recorded as 115.
